Data taken from patent US6440903B1, “Substituted 2,4-diamino-1,3,5-triazines as herbicides” (Bayer Aktiengesellschaft, priority 1996, dated 2002).

Tests used:
Format in all cases: in vivo
[1] = system: Amaranthus; test: Pre-emergence test; conditions: greenhouse, scored after three weeks
Procedure: (§1) Pre-emergence Test Solvent: 5 parts by weight of acetone Emulsifier: 1 part by weight of alkylaryl polyglycol ether To produce a suitable preparation of active compound, 1 part by weight of active compound is mixed with the stated amount of solvent, the stated amount of emulsifier is added and the concentrate is diluted with water to the desired concentration. Seeds of the test plants are sown in normal soil. After about 24 hours, the soil is watered with the preparation of active compound. The amount of water per unit area is advantageously kept constant. The concentration of active compound in the preparation is immaterial, only the application rate of active compound per unit area matters. After three weeks, the degree of damage to the plants is scored visually in % damage in comparison to the development of the untreated control. The figures denote: 0%=no effect (like untreated control) 100%=total destruction

[2] = system: Setaria; test: Pre-emergence test; conditions: greenhouse, 1000 g of ai./ha, scored after three weeks
Procedure: as §1

[3] = system: Veronica; test: Pre-emergence test; conditions: greenhouse, scored after three weeks
Procedure: as §1

[4] = system: Solanum; test: Pre-emergence test; conditions: greenhouse, scored after three weeks
Procedure: as §1

[5] = system: Wheat; test: Pre-emergence test; conditions: greenhouse, scored after three weeks
Procedure: as §1

[6] = system: Digitaria; test: Pre-emergence test; conditions: greenhouse, scored after three weeks
Procedure: as §1

[7] = system: Echinochloa; test: Pre-emergence test; conditions: greenhouse, scored after three weeks
Procedure: as §1

[8] = system: Polygonum; test: Pre-emergence test; conditions: greenhouse, scored after three weeks
Procedure: as §1

[9] = system: Amaranthus; test: Post-emergence test; conditions: greenhouse, scored after three weeks; for % damage, Amaranthus / pest or weed control at 1000 g/ha: 1000 g of ai./ha
Procedure: (§2) Post-emergence Test Solvent: 5 parts by weight of acetone Emulsifier: 1 part by weight of alkylaryl polyglycol ether To produce a suitable preparation of active compound, 1 part by weight of active compound is mixed with the stated amount of solvent, the stated amount of emulsifier is added and the concentrate is diluted with water to the desired concentration. Test plants which have a height of 5-15 cm are sprayed with the preparation of active compound such that the particular amounts of active compounds desired are applied per unit area. The concentration of the spray liquor is chosen so that the particular amounts of active compound desired are applied in 1000 l of water/ha. After three weeks, the degree of damage to the plants is scored visually in % damage in comparison to the untreated control. The Figures Denote: 0%=no effect (like untreated control) 100%=total destruction

[10] = system: Setaria; test: Post-emergence test; conditions: greenhouse, scored after three weeks; for % damage, Setaria / pest or weed control at 1000 g/ha: 1000 g of ai./ha
Procedure: as §2

[11] = system: Avena fatua; test: Post-emergence test; conditions: greenhouse, 1000 g of ai./ha, scored after three weeks
Procedure: as §2

[12] = system: Sinapis; test: Post-emergence test; conditions: greenhouse, 1000 g of ai./ha, scored after three weeks
Procedure: as §2

[13] = system: Abutilon; test: Post-emergence test; conditions: greenhouse, 1000 g of ai./ha, scored after three weeks
Procedure: as §2

[14] = system: Xanthium; test: Post-emergence test; conditions: greenhouse, 1000 g of ai./ha, scored after three weeks
Procedure: as §2

[15] = system: Galium; test: Post-emergence test; conditions: greenhouse, scored after three weeks
Procedure: as §2

[16] = system: Cotton; test: Pre-emergence test; conditions: greenhouse, 500 g of ai./ha, scored after three weeks
Procedure: as §1

[17] = system: Alopecurus; test: Post-emergence test; conditions: greenhouse, 1000 g of ai./ha, scored after three weeks
Procedure: as §2

[18] = system: Maize; test: Post-emergence test; conditions: greenhouse, 1000 g of ai./ha, scored after three weeks
Procedure: as §2

[19] = system: Maize; test: Pre-emergence test; conditions: greenhouse, 1000 g of ai./ha, scored after three weeks
Procedure: as §1

[20] = system: Sinapis; test: Pre-emergence test; conditions: greenhouse, 1000 g of ai./ha, scored after three weeks
Procedure: as §1

[21] = system: Abutilon; test: Pre-emergence test; conditions: greenhouse, 1000 g of ai./ha, scored after three weeks
Procedure: as §1

[22] = Amaranthus, 504 h, read-out: % damage, Amaranthus
[23] = Setaria, 504 h, read-out: % damage, Setaria

CC(=O)Nc1nc(NC(C)c2ccc(Cl)cc2)nc(C(F)C(F)(F)F)n1 (stereo not shown) [drawing 102]
% damage, Amaranthus ([1]; 1000 g of ai./ha): 100% | % damage, Setaria [2]: 100% | % damage, Veronica ([3]; 1000 g of ai./ha): 100% | % damage, Solanum ([4]; 1000 g of ai./ha): 100% | % damage, Wheat ([5]; 1000 g of ai./ha): 0% | % damage, Digitaria ([6]; 1000 g of ai./ha): 100% | % damage, Echinochloa ([7]; 1000 g of ai./ha): 100% | % damage, Polygonum ([8]; 1000 g of ai./ha): 100%

CC(Nc1nc(N)nc(C(F)(F)F)n1)c1ccc(Cl)cc1 (stereo not shown) [drawing 111]
% damage, Amaranthus [9]: 100% | % damage, Setaria [10]: 100% | % damage, Avena fatua [11]: 70% | % damage, Sinapis [12]: 100% | % damage, Abutilon [13]: 100% | % damage, Xanthium [14]: 100% | % damage, Galium ([15]; 1000 g of ai./ha): 100%

CC(Nc1nc(N)nc(C(C)(C)F)n1)c1ccc(Cl)cc1 (stereo not shown) [drawing 112]
% damage, Amaranthus [9]: 100% | % damage, Setaria [10]: 100% | % damage, Avena fatua [11]: 100% | % damage, Sinapis [12]: 100% | % damage, Abutilon [13]: 100% | % damage, Xanthium [14]: 100% | % damage, Galium ([15]; 1000 g of ai./ha): 100%

CC(Nc1nc(N)nc(C(Cl)Cl)n1)c1ccc(Cl)cc1 (stereo not shown) [drawing 98]
% damage, Veronica ([3]; 500 g of ai./ha): 100% | % damage, Solanum ([4]; 500 g of ai./ha): 100% | % damage, Cotton [16]: 0% | % damage, Wheat ([5]; 500 g of ai./ha): 0% | % damage, Digitaria ([6]; 500 g of ai./ha): 95% | % damage, Echinochloa ([7]; 500 g of ai./ha): 100% | % damage, Polygonum ([8]; 500 g of ai./ha): 100%

CC(Nc1nc(N)nc(Cl)n1)c1ccc(Cl)cc1 (stereo not shown) [drawing 108]
% damage, Amaranthus [9]: 100% | % damage, Setaria [10]: 100% | % damage, Avena fatua [11]: 80% | % damage, Sinapis [12]: 100% | % damage, Abutilon [13]: 100% | % damage, Alopecurus [17]: 70%

CC(=O)Nc1nc(NC(C)c2ccc(Cl)cc2)nc(C(F)C(F)(F)F)n1 (stereo not shown) [drawing 97]
% damage, Amaranthus ([1]; 500 g of ai./ha): 100% | % damage, Veronica ([3]; 500 g of ai./ha): 100% | % damage, Cotton [16]: 0% | % damage, Wheat ([5]; 500 g of ai./ha): 0% | % damage, Digitaria ([6]; 500 g of ai./ha): 80% | % damage, Echinochloa ([7]; 500 g of ai./ha): 95% | % damage, Polygonum ([8]; 500 g of ai./ha): 100%

CC(Nc1nc(N)nc(Cl)n1)c1ccc(Cl)cc1 (stereo not shown) [drawing 106]
pest or weed control at 1000 g/ha [9, 22]: 100% | pest or weed control at 1000 g/ha [10, 23]: 90% | % damage, Maize [18]: 20% | % damage, Alopecurus [17]: 80%

CC(Nc1nc(N)nc(Cl)n1)c1ccc(Cl)cc1 (stereo not shown) [drawing 107]
% damage, Amaranthus [9]: 100% | % damage, Setaria [10]: 100% | % damage, Avena fatua [11]: 100% | % damage, Sinapis [12]: 100% | % damage, Abutilon [13]: 100% | % damage, Alopecurus [17]: 100%

COSc1ccc(C(C)Nc2nc(NC(C)=O)nc(C(Cl)Cl)n2)cc1 (stereo not shown)
pest or weed control at 500 g/ha ([9]; Amaranthus, 504 h, 500 g of ai./ha, read-out: % damage, Amaranthus): 100% | pest or weed control at 500 g/ha ([10]; Setaria, 504 h, 500 g of ai./ha, read-out: % damage, Setaria): 90% | % damage, Galium ([15]; 500 g of ai./ha): 100%

CC(Nc1nc(N)nc(C(C)(C)F)n1)c1ccc(Cl)cc1 (stereo not shown) [drawing 110]
pest or weed control at 1000 g/ha [9, 22]: 100% | pest or weed control at 1000 g/ha [10, 23]: 100% | % damage, Avena fatua [11]: 95% | % damage, Sinapis [12]: 100% | % damage, Abutilon [13]: 100% | % damage, Alopecurus [17]: 90%

CC(Nc1nc(N)nc(C(C)(C)F)n1)c1ccc(Cl)cc1 (stereo not shown) [drawing 95]
% damage, Amaranthus ([1]; 1000 g of ai./ha): 90% | % damage, Maize [19]: 0% | % damage, Sinapis [20]: 100% | % damage, Abutilon [21]: 80%

CCC(Nc1nc(NC(C)=O)nc(C(F)(F)F)n1)c1ccc(Cl)cc1 (stereo not shown) [drawing 144]
pest or weed control at 1000 g/ha [9, 22]: 100% | pest or weed control at 1000 g/ha [10, 23]: 100% | % damage, Maize [18]: 10% | % damage, Abutilon [13]: 100% | % damage, Xanthium [14]: 90%
